Assay results taken from patent publication US20220280460A1, “METHODS AND COMPOSITIONS FOR STIMULATING EXOSOME SECRETION” (UNIVERSITY OF PITTSBURGH-OF THE COMMONWEALTH SYSTEM OF …, priority 2019, published 2022).

Columns and labels:
[1] = system: UMSCC47 HPV(+) head and neck cancer cells; test: Exosome secretion by UMSCC47 cells; assay type: cell-based; settings: for exosome production by UMSCC47 cells: total exosomal protein normalized to 10^6 cells
Method: All cell lines were grown at 37° C. in the atmosphere of 5% CO2 in air. Cultures were supplemented with fetal bovine serum (FBS) depleted of exosomes by ultracentrifugation at 100,000×g for 3 h. Cells were cultured in 150 cm^2 cell culture flasks using 25 ml of culture medium. Media used for cell cultures are described in Table 1. Seeding protocol was optimized for each cell type as recently described in Ludwig N., et al., (Exp Cell Res. 2019; 378(2):149-57). After seeding, cells were allowed to attach to the flask for 6 h, were then treated with indicated reagents and incubated for 48 or 72 h as indicated.
Exosome isolation by mini-SEC: Processing of supernatants and exosome isolation by mini-SEC was performed as previously described in Ludwig et al. Briefly, cell culture supernatants were centrifuged at room temperature (RT) for 10 min at 2000×g, were transferred to new tubes for centrifugation at 10,000×g at 4° C. for 30 min and filtrated using a 0.22 μm bacterial filter. Afterwards, aliquots of supernatants were concentrated by using Vivacell 100 concentrators at 2000×g. 1 mL of concentrated supernatant was loaded on a 10 cm-long Sepharose 2-B column and individual 1 mL fractions were collected. Fraction #4 containing non-aggregated exosomes was used in subsequent assays. The established isolation technique fulfils the criteria of the MISEV2018 guidelines and therefore the term ‘exosomes’ is used.
Protein concentration: Protein concentrations were determined by using a BCA protein assay (Pierce Biotechnology, Rockford, Ill., USA) according to the manufacturer's instructions.
Tunable resistive pulse sensing (TRPS): Size distribution and concentrations of the particles in isolated exosome fractions were analyzed using tunable-resistive pulse sensing (TRPS) by qNano (Izon) as described in Ludwig N, et al., Mol Cancer Res. 2018; 16(11):1798-808.

[2] = system: Preglomerular vascular smooth muscle cells (PGVSMCs); test: Exosome production by PGVSMCs from CNPase +/+ and −/− rats; assay type: cell-based, rat; settings: 8-Br-2′,3′-cAMP 0.3 μM; IAA/DNP 5 μM
Source text: Isolation of rat CNPASE +/+ and −/− PGVSMCs: 2′,3′-Cyclic nucleotide 3′-phosphodiesterase (CNPase) knockout rats used in this example were generated by the MCW Gene Editing Rat Resource Program. This strain was produced by injecting a CRISPR targeting the sequence […] into rat embryos. The resulting mutation was a 7 base pair deletion in exon 2. Animals were genotyped by PCR. Preglomerular vascular smooth muscle cells (PGVSMCs) were isolated from kidneys of wild type (CNPase +/+) and knockout (CNPase −/−) rats using a previously described method. Cells were cultured at 37° C. in the atmosphere of 5% CO2 in air using DMEM supplemented with exosome-depleted FBS. Exosome isolation was performed as described above.

Row | SMILES | exosome production by UMSCC47 cells [1] | stimulation of exosome production, CNPase −/− versus CNPase +/+ PGVSMCs [2] | effect on stimulation of exosome production by IAA/DNP ([1]; UMSCC47, in combination with IAA/DNP)
1 | Nc1ncnc2c1nc(Br)n2C1OC(CO)C2OP(=O)(O)OC21 (stereo not drawn) [8-Br-2′,3′-cAMP] | concentration-dependent increase in exosome secretion | greater in CNPase −/− compared with CNPase +/+ cells | 
2 | Nc1ncnc2c1ncn2[C@@H]1O[C@H](CO)[C@@H](O)[C@H]1OP(=O)(O)O [2′-AMP] | did not affect exosome secretion |  | 
3 | Nc1ncnc2c1ncn2[C@@H]1O[C@H](CO)[C@H]2OP(=O)(O)O[C@H]21 [2′,3′-cAMP] | stimulated exosome production, but only at high concentrations |  | 
4 | CCCn1c(=O)c2[nH]c(-c3ccc(OCC(=O)Nc4ccc(C#N)cc4)cc3)nc2n(CCC)c1=O [MRS 1754] |  |  | significantly decreased
5 | Nc1ncnc2c1ncn2[C@@H]1O[C@H](CO)[C@@H](OP(=O)(O)O)[C@H]1O [3′-AMP] | significantly stimulated exosome release |  | 
